Experiment [1] deals with T1, Estrogen receptor (Homo sapiens) (UniProt P03372).
T1 sequence (whole entry): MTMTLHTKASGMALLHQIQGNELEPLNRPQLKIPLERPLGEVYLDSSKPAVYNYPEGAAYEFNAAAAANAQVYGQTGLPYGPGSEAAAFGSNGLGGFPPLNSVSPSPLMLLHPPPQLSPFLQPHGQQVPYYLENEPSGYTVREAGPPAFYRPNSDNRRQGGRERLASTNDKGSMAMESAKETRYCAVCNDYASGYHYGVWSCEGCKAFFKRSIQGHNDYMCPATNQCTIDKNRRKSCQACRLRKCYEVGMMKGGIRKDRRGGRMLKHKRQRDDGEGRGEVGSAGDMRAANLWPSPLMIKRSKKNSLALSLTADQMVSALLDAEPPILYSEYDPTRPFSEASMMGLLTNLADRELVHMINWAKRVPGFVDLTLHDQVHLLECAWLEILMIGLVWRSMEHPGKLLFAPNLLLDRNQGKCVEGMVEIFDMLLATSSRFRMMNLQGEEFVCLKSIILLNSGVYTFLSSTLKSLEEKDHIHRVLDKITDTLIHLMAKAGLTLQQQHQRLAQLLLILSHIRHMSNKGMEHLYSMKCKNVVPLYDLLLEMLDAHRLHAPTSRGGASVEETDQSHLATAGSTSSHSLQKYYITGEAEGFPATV
Briefly: Displacement of [3H]estradiol from ERalpha isolated from BL21 cells relative to estradiol at 25 degC. The format is cell-free.

The species entered for another experiment is Rattus norvegicus. Briefly: Estrogenic efficacy in rat by immature rat uterotrophic growth assay. It is filed as functional, organism-based.

In ChEMBL document CHEMBL1141399, “Synthesis and evaluation of isomeric (17alpha,20E)-11beta-methoxy-21-(trifluoromethylphenyl)-19-norpregna-1,3,5(10),20-tetraene-3,17beta-diols as ERalpha-hormone binding domain ligands: effect of the methoxy group on receptor binding and uterotrophic growth” (J Med Chem, 2007) one finds RBA and Activity data, which are given here for eight molecules.

Calls of active or inactive are those of the source. The rule behind the calls is not given here.

On to `C[C@]12CC[C@@H]3c4ccc(O)cc4CC[C@H]3[C@@H]1CC[C@@]2(O)/C=C/c1cccc(C(F)(F)F)c1`, for which the RBA in experiment [1] stood at 75. `CO[C@H]1C[C@@]2(C)[C@@H](CC[C@@]2(O)/C=C/c2cccc(C(F)(F)F)c2)[C@@H]2CCc3cc(O)ccc3[C@H]21` displayed an RBA in experiment [1] of 65.

Molecule `C[C@]12CC[C@@H]3c4ccc(O)cc4CC[C@H]3[C@@H]1CC[C@@]2(O)/C=C/c1ccccc1C(F)(F)F` had an RBA in experiment [1] of 223.

The molecule `C[C@]12CC[C@@H]3c4ccc(O)cc4CC[C@H]3[C@@H]1CC[C@@]2(O)/C=C/c1ccccc1` gave an RBA in experiment [1] of 18. The outcome in the experiment listed under Rattus norvegicus was inactive. Regarding `C[C@]12CC[C@@H]3c4ccc(O)cc4CC[C@H]3[C@@H]1CC[C@@]2(O)/C=C/c1ccc(C(F)(F)F)cc1`, the RBA in experiment [1] was 8. Still for that read-out and setting: for `CO[C@H]1C[C@@]2(C)[C@@H](CC[C@@]2(O)/C=C/c2ccccc2C(F)(F)F)[C@@H]2CCc3cc(O)ccc3[C@H]21` the value was 212; for `CO[C@H]1C[C@@]2(C)[C@@H](CC[C@@]2(O)/C=C/c2ccc(C(F)(F)F)cc2)[C@@H]2CCc3cc(O)ccc3[C@H]21`, 5. Same read-out and setting: the figure for `CO[C@H]1C[C@@]2(C)[C@@H](CC[C@@]2(O)/C=C/c2ccccc2)[C@@H]2CCc3cc(O)ccc3[C@H]21` is 15.
